The record followed here is patent publication US11371055B2, “Herbicide resistance genes” (CORTEVA AGRISCIENCE LLC, priority 2005, dated 2022).

Experiment [1] has as its system AAD-12 (v1) T0 Maverick soybean plants. The experiment is described as follows: 2,4-D leaf paint (leaf flip assay) on T0 soybean. The settings on record: for Leaf flip assay (18 HAT) Node N-1 / Leaf flip assay (18 HAT) Node N-2: 2,4-D leaf paint. On the set-up: key to Leaf flip assay (18 HAT) Node N-1 / Leaf flip assay (18 HAT) Node N-2: 1 = Flip; 0 = No Flip. Format: in vivo, Glycine max. The text has this:
Plants that are transferred to the greenhouse can be assayed for the presence of an active PAT gene further with a non-destructive manner by painting a section of leaf of the T0 primary transformant, or progeny thereof, with a glufosinate solution [0.05-2% v/v Liberty Herbicide, preferably 0.25-1.0% (v/v),=500-2000 ppm glufosinate, Bayer Crop Science]. Depending on the concentration used, assessment for glufosinate injury can be made 1-7 days after treatment. Plants can also be tested for 2,4-D tolerance in a non-destructive manner by selective application of a 2,4-D solution in water (0.25-1% v/v commercial 2,4-D dimethylamine salt formulation, preferably 0.5% v/v=2280 ppm 2,4-D ae) to the terminal leaflet of the newly expanding trifoliolate one or two, preferably two, nodes below the youngest emerging trifolioate. This assay allows assessment of 2,4-D sensitive plants 6 hours to several days after application by assessment of leaf flipping or rotation >90 degrees from the plane of the adjacent leaflets. Plants tolerant to 2,4-D will not respond to 2,4-D. To plants will be allowed to self fertilize in the greenhouse to give rise to T1 seed. T1 plants (and to the extent enough T0 plant clones are produced) will be sprayed with a range of herbicide doses to determine the level of herbicide protection afforded by AAD-12 (v1) and PAT genes in transgenic soybean. Rates of 2,4-D used on T0 plants will typically comprise one or two selective rates in the range of 100-1120 g ae/ha using a track sprayer as previously described. T1 plants will be treated with a wider herbicide dose ranging from 50-3200 g ae/ha 2,4-D. Likewise, T0 and T1 plants can be screened for glufosinate resistance by postemergence treatment with 200-800 and 50-3200 g ae/ha glufosinate, respectively. Glyphosate resistance (in plants transformed with constructs that contain EPSPS) or another glyphosate tolerance gene can be assessed in the T1 generation by postemergence applications of glyphosate with a dose range from 280-2240 g ae/ha glyphosate. Analysis of protein expression will occur as described in below. Individual T0 plants were assessed for the presence of the coding region of the gene of interest (AAD-12 (v1) or PAT v6) and copy number. Determination of the inheritance of AAD-12 (v1) will be made using T1 and T2 progeny segregation with respect to herbicide tolerance as described in previous examples.
A subset of the initial transformants were assessed in the T0 generation according to the methods above. […] PAT-only transformed plants responded the same at wildtype plants to leaf paint applications of 2,4-D

In experiment [2] the test system is AAD-2 (v1) transformed T1 Arabidopsis. The experiment is described as follows: 2,4-D dose response of AAD-2 (v1) transformed T1 Arabidopsis. Format: in vivo, Arabidopsis thaliana. Conditions: 200 g ae/ha 2,4-D. Here is the method: Freshly harvested T1 seed transformed with a plant optimized AAD-12 (v1) or native AAD-2 (v1) gene were planted and selected for resistance to glufosinate as previously described Plants were then randomly assigned to various rates of 2,4-D (50-3200 g ae/ha). Herbicide applications were applied by track sprayer in a 187 L/ha spray volume. 2,4-D used was the commercial dimethylamine salt formulation (456 g ae/L, NuFarm, St Joseph, Mo.) mixed in 200 mM Tris buffer (pH 9.0) or 200 mM HEPES buffer (pH7.5).

Another experiment has as its system T1 AAD-12 (v1) tobacco. As to the kind of experiment: Elevated 2,4-D DMA rates in greenhouse tobacco, AAD-12. Format: in vivo, Nicotiana tabacum. The text has this: T1 AAD-12 (v1) plants from an event segregating 3R:1S when selected with 560 g ai/ha Liberty using the same protocol as previously described. T1 AAD-1 (v3) seed was also planted for transformed tobacco controls (see PCT/US2005/014737). Untransformed KY160 was served as the sensitive control. Plants were sprayed using a track sprayer set to 187 L/ha at 140, 560, 2240, 8960, and 35840 g ae/ha 2,4-D DMA and rated 3 and 14 DAT.

Experiment [3] concerns AAD-12 transformed T0 corn events. As to the kind of experiment: Postemergence herbicide tolerance in T0 corn. The settings on record: 2240 g ae/ha 2,4-D. Format: in vivo, Zea mays. Here is the method: Four T0 events were allowed to acclimate in the greenhouse and were grown until 2-4 new, normal looking leaves had emerged from the whorl (i.e., plants had transitioned from tissue culture to greenhouse growing conditions). Plants were grown at 27° C. under 16 hour light:8 hour dark conditions in the greenhouse. Plants were then treated with commercial formulations of either Pursuit® (imazethapyr) or 2,4-D Amine 4. […] Herbicide applications were made with a track sprayer at a spray volume of 187 L/ha, 50-cm spray height. Plants were sprayed with either a lethal dose of imazethapyr (70 g ae/ha) or a rate of 2,4-D DMA salt capable of significant injury to untransformed corn lines (2240 g ac/ha). A lethal dose is defined as the rate that causes >95% injury to the Hi-II inbred. Hi-II is the genetic background of the transformants of the present invention.

For `O=C(O)COc1ccc(Cl)cc1Cl` [2,4-D, 2,4-dichlorophenoxyacetic acid], the “Leaf flip assay (18 HAT) Node N-1” value in experiment [1] (event D-1-14 (pDAB4464, AAD-12, CsVMV)) stood at 0; in experiment [1] (event D-3-6 (pDAB4468, AAD-12, AtUbi10)), 0; in experiment [1] (event D-5-2 (pDAB4472, AAD-12, AtUbi3)) it was 0. In addition, the “Leaf flip assay (18 HAT) Node N-2” value in experiment [1] (event D-2-9 (pDAB4464, AAD-12, CsVMV)) is listed as 0; in experiment [1] (event D-2-14 (pDAB4464, AAD-12, CsVMV)), 0; in experiment [1] (event D-3-5 (pDAB4468, AAD-12, AtUbi10)), 0; in experiment [1] (event D-3-7 (pDAB4468, AAD-12, AtUbi10)), 0; in experiment [1] (event D-3-9 (pDAB4468, AAD-12, AtUbi10)), 0; in experiment [1] (event D-4-11B (pDAB4468, AAD-12, AtUbi10)) it was 0. In addition, the “Leaf flip assay (18 HAT) Node N-2” value in experiment [1] (event D-4-16 (pDAB4468, AAD-12, AtUbi10)) is 0; in experiment [1] (event D-4-17 (pDAB4468, AAD-12, AtUbi10)), 0; in experiment [1] (event D-9-1 (pDAB4480, AAD-12, AtAct2)), 0. The “response to 2,4-D leaf painting” value in experiment [1] (2,4-D solution applied to terminal leaflet) is “did not respond”. The overall population injury entry in experiment [2] is recorded as “about 83%”. The “Average % injury 14 DAT” value in the experiment on T1 AAD-12 (v1) tobacco (2240 g ae/ha 2,4-D) is on record as 0%; in the experiment with T1 AAD-12 (v1) tobacco (8960 g ae/ha 2,4-D), 0%; with T1 AAD-12 (v1) tobacco (35840 g ae/ha 2,4-D), 4%. Also, the “% injury 14 DAT” value in experiment [3] (T0 corn event 4101(0)003.001), in experiment [3] (T0 corn event 4101(0)003.003) and in experiment [3] (T0 corn event 4101(0)005.001) was 0% throughout.
